Source: ChEMBL document CHEMBL1149774, “Synthesis of N-(5,7-diamino-3-phenyl-quinoxalin-2-yl)-3,4,5-substituted anilines and N-[4[(5,7-diamino-3-phenylquinoxalin-2-yl)amino]benzoyl]-l-glutamic acid diethyl ester: evaluation of in vitro anti-cancer and anti-folate activities” (Eur J Med Chem, 2008)

What was measured:
Type in all cases: functional
HOP-62 = assay: Growth inhibition of human HOP62 cells after 48 hrs by SRB staining method; conditions: HOP-62, 48 h
NCI-H23 = assay: Growth inhibition of human NCI-H23 cells after 48 hrs by SRB staining method; conditions: NCI-H23, 48 h
NCI-H322M = assay: Growth inhibition of human NCI-H322M cells after 48 hrs by SRB staining method
NCI-H460 = assay: Growth inhibition of human NCI-H460 cells after 48 hrs by SRB staining method; conditions: NCI-H460, 48 h
NCI-H522 = assay: Growth inhibition of human NCI-H522 cells after 48 hrs by SRB staining method; conditions: NCI-H522, 48 h
HCT-116 = assay: Growth inhibition of human HCT116 cells after 48 hrs by SRB staining method; conditions: HCT-116, 48 h
HCT-15 = assay: Growth inhibition of human HCT15 cells after 48 hrs by SRB staining method; conditions: HCT-15, 48 h
KM12 = assay: Growth inhibition of human KM12 cells after 48 hrs by SRB staining method; conditions: KM12, 48 h
SF-295 = assay: Growth inhibition of human SF295 cells after 48 hrs by SRB staining method; conditions: SF-295, 48 h
U-251 = assay: Growth inhibition of human U251 cells after 48 hrs by SRB staining method; conditions: U-251, 48 h
LOX IMVI = assay: Growth inhibition of human LOX IMVI cells after 48 hrs by SRB staining method
Malme-3M = assay: Growth inhibition of human MALME-3M cells after 48 hrs by SRB staining method
SK-MEL-2 = assay: Growth inhibition of human SK-MEL-2 cells after 48 hrs by SRB staining method; conditions: SK-MEL-2, 48 h
SK-MEL-28 = assay: Growth inhibition of human SK-MEL-28 cells after 48 hrs by SRB staining method; conditions: SK-MEL-28, 48 h
SK-MEL-5 = assay: Growth inhibition of human SK-MEL-5 cells after 48 hrs by SRB staining method; conditions: SK-MEL-5, 48 h
OVCAR-3 = assay: Growth inhibition of human OVCAR-3 cells after 48 hrs by SRB staining method; conditions: OVCAR-3, 48 h
OVCAR-4 = assay: Growth inhibition of human OVCAR4 cells after 48 hrs by SRB staining method; conditions: OVCAR-4, 48 h
OVCAR-5 = assay: Growth inhibition of human OVCAR5 cells after 48 hrs by SRB staining method; conditions: OVCAR-5, 48 h
OVCAR-8 = assay: Growth inhibition of human OVCAR8 cells after 48 hrs by SRB staining method; conditions: OVCAR-8, 48 h
SK-OV-3 = assay: Growth inhibition of human SKOV3 cells after 48 hrs by SRB staining method; conditions: SK-OV-3, 48 h
786-0 = assay: Growth inhibition of human 786-0 cells after 48 hrs by SRB staining method; conditions: 786-0, 48 h
A498 = assay: Growth inhibition of human A498 cells after 48 hrs by SRB staining method; conditions: A498, 48 h
SN12C = assay: Growth inhibition of human SN12C cells after 48 hrs by SRB staining method
UO-31 = assay: Growth inhibition of human UO31 cells after 48 hrs by SRB staining method; conditions: UO-31, 48 h
PC-3 = assay: Growth inhibition of human PC3 cells after 48 hrs by SRB staining method; conditions: PC-3, 48 h
MCF7 = assay: Growth inhibition of human MCF7 cells after 48 hrs by SRB staining method; conditions: MCF7, 48 h
MDA-MB-231 = assay: Growth inhibition of human MDA-MB-231 cells after 48 hrs by SRB staining method; conditions: MDA-MB-231, 48 h
BT-549 = assay: Growth inhibition of human BT549 cells after 48 hrs by SRB staining method; conditions: BT-549, 48 h
A549 = assay: Growth inhibition of human A549 cells after 48 hrs by SRB staining method; conditions: A549, 48 h
SW-620 = assay: Growth inhibition of human SW620 cells after 48 hrs by SRB staining method; conditions: SW-620, 48 h
RPMI-8226 = assay: Growth inhibition of human RPMI8226 cells after 48 hrs by SRB staining method; conditions: RPMI-8226, 48 h
SR = assay: Growth inhibition of human SR cells after 48 hrs by SRB staining method
EKVX = assay: Growth inhibition of human EKVX cells after 48 hrs by SRB staining method
[1] = read-out: pLC50 (the source's name) (converted)

In the case of `COc1ccc(Nc2nc3cc(N)cc(N)c3nc2-c2ccccc2)cc1`, the GI50 (HOP-62) was 27.5 µM, the LC50 (HOP-62) was > 100 µM and the TGI (HOP-62; read-out: pTGI (converted)) was > 100 µM. It also gave a GI50 (NCI-H23) of 12.6 µM, an LC50 (NCI-H23) of 51.3 µM and a TGI (NCI-H23; read-out: pTGI (converted)) of 25.1 µM. For the same molecule, the GI50 (NCI-H322M) was 23.4 µM, the LC50 (NCI-H322M) was > 100 µM and the TGI (NCI-H322M; read-out: pTGI (converted)) was 83.2 µM. The GI50 (NCI-H460) was 26.9 µM, the LC50 (concentration killing 50% of cells) (NCI-H460) was > 100 µM and the TGI (NCI-H460; read-out: pTGI (converted)) was 89.1 µM. It also gave a GI50 (NCI-H522) of 14.8 µM, an LC50 (NCI-H522) of 52.5 µM and a TGI (NCI-H522; read-out: pTGI (converted)) of 28.2 µM. The GI50 (HCT-116) was 14.8 µM, the LC50 (HCT-116) was 52.5 µM and the TGI (HCT-116; read-out: pTGI (converted)) was 28.2 µM. For the same molecule, the GI50 (HCT-15) was 15.1 µM, the LC50 (HCT-15) was > 100 µM and the TGI (HCT-15; read-out: pTGI (converted)) was 44.7 µM. For the same molecule, the GI50 (KM12) was 15.8 µM, the LC50 (KM12) was 60.3 µM and the TGI (KM12; read-out: pTGI (converted)) was 30.9 µM. The GI50 (SF-295) was 31.6 µM, the LC50 (SF-295) was > 100 µM and the TGI (SF-295; read-out: pTGI (converted)) was > 100 µM. The GI50 (U-251) was 16.2 µM, the LC50 (50% lethal concentration) (U-251) was 55 µM and the TGI (U-251; read-out: pTGI (converted)) was 29.5 µM. It also gave a GI50 (LOX IMVI) of 16.2 µM, an LC50 (LOX IMVI) of 55 µM and a TGI (LOX IMVI; read-out: pTGI (converted)) of 29.5 µM. The GI50 (Malme-3M) was 15.1 µM, the LC50 (Malme-3M) was 53.7 µM and the TGI (Malme-3M; read-out: pTGI (converted)) was 28.2 µM. For the same molecule, the GI50 (SK-MEL-2) was 15.5 µM, the LC50 (SK-MEL-2) was 63.1 µM and the TGI (SK-MEL-2; read-out: pTGI (converted)) was 31.6 µM. For the same molecule, the GI50 (SK-MEL-28) was 17 µM, the CC50 (SK-MEL-28; [1]) was 55 µM and the TGI (SK-MEL-28; read-out: pTGI (converted)) was 30.2 µM. For the same molecule, the GI50 (SK-MEL-5) was 15.1 µM, the LC50 (SK-MEL-5) was 53.7 µM and the TGI (SK-MEL-5; read-out: pTGI (converted)) was 28.8 µM. The GI50 (OVCAR-3) was 17.4 µM, the LC50 (OVCAR-3) was 79.4 µM and the TGI (OVCAR-3; read-out: pTGI (converted)) was 37.2 µM. It also gave a GI50 (OVCAR-4) of 10.5 µM, an LC50 (OVCAR-4) of 46.8 µM and a TGI (OVCAR-4; read-out: pTGI (converted)) of 21.9 µM. The GI50 (OVCAR-5) was 21.4 µM, the LC50 (OVCAR-5) was > 100 µM and the TGI (OVCAR-5; read-out: pTGI (converted)) was 53.7 µM. The GI50 (OVCAR-8) was 13.8 µM, the CC50 (OVCAR-8; [1]) was 67.6 µM and the TGI (OVCAR-8; read-out: pTGI (converted)) was 30.9 µM. For the same molecule, the GI50 (SK-OV-3) was 33.1 µM, the CC50 (SK-OV-3; [1]) was > 100 µM and the TGI (SK-OV-3; read-out: pTGI (converted)) was 97.7 µM. It also gave a GI50 (786-0) of 15.8 µM, a CC50 (786-0; [1]) of 60.3 µM and a TGI (786-0; read-out: pTGI (converted)) of 30.9 µM. For the same molecule, the CC50 (A498; [1]) was > 100 µM, the TGI (A498; read-out: pTGI (converted)) was > 100 µM and the GI50 (SN12C) was 20.4 µM. For the same molecule, the CC50 (SN12C; [1]) was > 100 µM, the TGI (SN12C; read-out: pTGI (converted)) was 57.5 µM and the GI50 (UO-31) was 16.6 µM. It also gave a CC50 (UO-31; [1]) of 70.8 µM, a TGI (UO-31; read-out: pTGI (converted)) of 33.9 µM and a GI50 (PC-3) of 20.9 µM. For the same molecule, the CC50 (PC-3; [1]) was > 100 µM, the TGI (PC-3; read-out: pTGI (converted)) was 47.9 µM and the GI50 (MCF7) was 14.8 µM. The CC50 (MCF7; [1]) was 52.5 µM, the TGI (MCF7; read-out: pTGI (converted)) was 28.2 µM and the GI50 (MDA-MB-231) was 11.5 µM. It also gave a CC50 (MDA-MB-231; [1]) of 55 µM, a TGI (MDA-MB-231; read-out: pTGI (converted)) of 25.1 µM and a GI50 (BT-549) of 13.5 µM. For the same molecule, the CC50 (BT-549; [1]) was 75.9 µM, the TGI (BT-549; read-out: pTGI (converted)) was 31.6 µM and the GI50 (A549) was 27.5 µM. For the same molecule, the CC50 (A549; [1]) was > 100 µM, the TGI (A549; read-out: pTGI (converted)) was > 100 µM and the GI50 (SW-620) was 22.4 µM. It also gave a CC50 (SW-620; [1]) of 60.3 µM, a TGI (SW-620; read-out: pTGI (converted)) of 37.2 µM and a GI50 (RPMI-8226) of 19.1 µM. The CC50 (RPMI-8226; [1]) was > 100 µM, the TGI (RPMI-8226; read-out: pTGI (converted)) was > 100 µM and the GI50 (SR) was 19.1 µM. The CC50 (SR; [1]) was > 100 µM, the TGI (SR; read-out: pTGI (converted)) was > 100 µM and the GI50 (EKVX) was 25.7 µM. For the same molecule, the CC50 (EKVX; [1]) was > 100 µM and the TGI (EKVX; read-out: pTGI (converted)) was > 100 µM.
